{"source": "patent EP0812190B1", "about": "(priority 1993, dated 1995)", "key": {"[1]": {"system": "maximal electroshock seizures", "test": "animal or person", "settings": "mice, 100 mg/kg", "excerpt": "The MES test is a classical model to indicate efficacy for partial and generalized seizures in humans. […] Some agents, however, that prevent seizure spread have the side effect of lowering seizure threshold. These agents therefore have both proconvulsive and anticonvulsive side effects."}, "[2]": {"system": "NMDA-induced cell death of cerebellum cells", "test": "cells", "procedure": "Procedures: Cultures of mechanically dissociated neonatal rat cerebellum. […] The cerebella are then dissociated after 20-25 passages through a sterile 13 gauge, 10 cm long stainless steel needle attached to a 5 ml syringe with an inserted 45 µm pore size nylon sieve. The dissociated cells are centrifuged at 200g for 5 minutes, the supernatant discarded and the cells resuspended in enriched medium. The cell viability is determined by the trypan blue exclusion test. […] After 4 days in culture, the media are replaced with media containing the desired test compounds. Experiments are done in duplicate and repeated 2 or 3 times. […] Nerve cell survival is evaluated by phase contrast microscopy and trypan blue staining after 24 h."}, "closed head injury [3]": {"system": "closed head injury", "settings": "24 h after trauma; 0.1 mg/kg i.p. at 0, 4, 8 and 12 h", "procedure": "(§1) Head trauma was induced in male rats under ether anesthesia by a well calibrated weight-drop device that falls over the exposed skull, covering the left cerebral hemisphere, 1-2 mm lateral to the midline, in the midcoronal plane.\n(§2) [R] (+)PAI Mesylate was dissolved in water. The rats were injected intraperitoneally at a dose of 0.1 mg/kg, 0, 4, 8 and 12 h after induction of head trauma. Control rats were treated with water at the same times."}, "[4]": {"system": "haloperidol-induced catalepsy", "description": "(+)PAI mesylate, or racemic-PAI mesylate. All drugs were administered i.p. in a volume of 0.2 mL. Two hours later, haloperidol was injected s.c. at a dose of 6mg/kg in a volume of 0.1-0.2 mL. Motor coordination tests were made at 3 hours after giving haloperidol, that is, 5 hours after administering the presumed protective drugs.\nMotor coordination tests and rigidity were quantified according to three different parameters: (a) ability to walk the length of a horizontal rod, 80 cm-long; (b) ability co climb down, face down, a vertical rod, 80 cm-long; (c) duration of immobility in an unnatural sitting posture whereby the abdomen of the mouse is pressed against a \"wall.\" Full performance as in haloperidol-untreated mice is given the score of 4 in each test, or a total of 12 in all tests. Poor performance is given a score from 1 to 3."}, "[5]": {"system": "crush injury of the optic nerve", "procedure": "• a) General. […] At short terms, metabolic measurements were monitored in terms of the mitochondrial NADH/NAD ratio, which depends on the activity of the electron transport system, and thus indicate levels of energy production. Changes in ability of the nerve to produce energy as a consequence of injury were determined by comparing NADH levels in response to artificial transient anoxic insult before and after the injury. • b) Surface fluorometry - reflectometry. Monitoring of the intramitochondrial NADH redox state is based on the fact that NADH, unlike the oxidized form NAD^+, fluoresces when illuminated […]. A flexible Y-shaped bundle of optic fibers (light guide) was used to transmit the light to and from the optic nerve. […] Changes in the reflected light were correlated with changes in tissue absorption caused by hemodynamic effects and with movements of the optic nerve secondary to alterations in arterial blood pressure and nerve volume. […] Animal utilization was in accord with the ARVO Resolution on the use of animals in research. Male Sprague-Dawley (SPD) rats weighing 300-400g were anesthetized with sodium pentobarbitone (50 mg/kg intraperitoneally). With the animal's head held in place by a head holder, a lateral canthotomy was performed under a binocular operating microscope and the conjuctiva was incised lateral to the cornea."}, "closed head injury [6]": {"system": "closed head injury", "settings": "0.1 mg/kg i.p. at 0, 4, 8 and 12 h after head trauma", "procedure": "as §1\nThese criteria, referred to as the Neurological Severity Score (NSS), consist of a series of reflexes and motor functions. Points are given based on deficits in these criteria. At 24h the rats were reevaluated.\nas §2"}, "neurological deficits": {"system": "neurological deficits", "settings": "mouse, in vivo, 300 mg/kg", "description": "TD50 (median toxic dose). This test measures neurological deficits by the rotorod ataxia test. A mouse is placed on a knurled rod rotating at 6 rpm. It is then determined whether a mouse has the ability to maintain its equilibrium and stay on the rod for one minute in each of three trials."}, "[7]": {"system": "α-MpT-induced hypokinesia", "test": "Reversal of α-MpT-induced hypokinesia in rats", "type": "in vivo", "procedure": "The drug α-MpT is assumed to inhibit the formation of L-DOPA from tyrosine, and consequently the formation of dopamine itself. Lack of CNS dopamine is expressed as hypoactivity. Six month-old male Wistar rats (from Harlan Orkack, UK) were pretreated with saline, [R] […] Two hours later they received i.p. α-MpT at a dose of 100 mg/kg in 0.3-0.5 mL. Controls received saline. Following this, motor activity was recorded in a computerized activity cage for the duration of 10 hours. […] (+)PAI Mesylate at 2 mg/kg."}, "[8]": {"settings": "Rattus norvegicus, 24 h, read-out: Percent Protection"}, "[9]": {"settings": "Rattus norvegicus, 24 h, read-out: Surviving Cells"}}, "note": "Like-named read-outs stand apart in the source and are kept apart here. Marks after values point to notes of the source that are not given here."}
{"smiles": "C#CCN[C@@H]1CCc2ccccc21.CS(=O)(=O)O", "note": "[[R](+)PAI Mesylate, R-(+)-N-propargyl-1-aminoindan mesylate]", "values": [{"measurement": "mice protected", "setting": "[1]", "value": "one out of three"}, {"measurement": "inhibition at 0.01 µM", "setting": "[2]; [8]", "value": 2, "unit": "%"}, {"measurement": "inhibition at 10 µM", "setting": "[2]; [8]", "value": 27, "unit": "%"}, {"measurement": "viability at 1 µM", "setting": "[2]; [9]", "value": 22, "unit": "%"}, {"measurement": "viability at 10 µM", "setting": "[2]; [9]", "value": 37, "unit": "%"}, {"measurement": "Percent Protection", "setting": "[2]; cerebellar cell cultures, 1440 min, 1 µM", "value": 12, "unit": "%"}, {"measurement": "Surviving Cells", "setting": "[2]; rat, cerebellar cell cultures, 24 h, 0.01 µM", "value": "12% of untreated controls"}, {"measurement": "% H2O in the brain", "setting": "closed head injury [3]", "value": "82.1 ± 0.6", "unit": "%"}, {"measurement": "% of control", "setting": "[4]; 3.0 mg/kg i.p.", "value": 60, "unit": "%"}, {"measurement": "Score+SE", "setting": "[4]; 3.0 mg/kg i.p.", "value": "6.4±0.5"}, {"measurement": "% of control", "setting": "[4]; 5.0 mg/kg i.p.", "value": 73, "unit": "%"}, {"measurement": "Score+SE", "setting": "[4]; 5.0 mg/kg i.p.", "value": "8.7±0.9"}, {"measurement": "Score+SE", "setting": "[4]; 10 mg/kg i.p.", "value": "11.3±0.3"}, {"measurement": "% of control", "setting": "[4]; 10 mg/kg i.p., listed as [R] (+)PAI Mesylate, mesylate", "value": 94, "unit": "%"}, {"measurement": "% of control", "setting": "[4]; 10 mg/kg i.p., listed as [R] (+)PAI mesylate, mesylate", "value": "≈ 94%"}, {"measurement": "% of control", "setting": "[4]; 15 mg/kg i.p.", "value": 90, "unit": "%"}, {"measurement": "Score+SE", "setting": "[4]; 15 mg/kg i.p.", "value": "10.8±0.5"}, {"measurement": "Score+SE", "setting": "[4]; […] i.p. (free base), 2 h before haloperidol 6mg/kg s.c., max score 12", "value": "7.2±1"}, {"measurement": "injury-induced reduction in energy production (NADH response to anoxia)", "setting": "[5]; 2 mg/kg i.p. immediately after injury", "value": "blocked the injury-induced reduction in energy production"}, {"measurement": "CAP amplitude (Mean ± Std. Error.)", "setting": "[5]; single injection 0.5 mg/kg immediately after injury, 14 days later", "value": "2104 ± 313", "unit": "µV"}, {"measurement": "NSS 1 h", "setting": "closed head injury [6]", "value": 16.7}, {"measurement": "NSS 24 h", "setting": "closed head injury [6]", "value": 10.2}, {"measurement": "Δ NSS (1h - 24h)", "setting": "closed head injury [6]", "value": "6.5 ± 0.7"}, {"measurement": "acute neurotoxicity", "setting": "neurological deficits", "value": "did not show any neurotoxicity"}, {"measurement": "Score (total motor activity, 10 hours)", "setting": "[7]; 2 mg/kg i.p., 2 h before α-MpT 100 mg/kg i.p., SE in the line below", "value": "14,132**"}, {"measurement": "% of control", "setting": "[7]; 2 mg/kg i.p., relative to saline control, listed as [R] (+)PAI Mesylate, mesylate", "value": 89, "unit": "%"}, {"measurement": "% of control", "setting": "[7]; 2 mg/kg i.p., relative to saline control, mesylate", "value": "about 90%"}, {"measurement": "% of control", "setting": "[7]; 5 mg/kg i.p.", "value": 81, "unit": "%"}, {"measurement": "Score (total motor activity, 10 hours)", "setting": "[7]; 5 mg/kg i.p.", "value": "12,893*"}]}
